Data from patent US12377069B2, “Compounds, compositions, methods of using, and methods for preparing compounds” (UNIVERSITY OF LOUISVILLE RESEARCH FOUNDATION, INC., priority 2018, dated 2025).

Tests used:
[1] = test system: C57BL/6N mice; assay: Chronic ALD mouse model; assay type: in vivo; conditions: 20 mg/kg orally every other day, 4 weeks
Description: FIG. 18: UAS03 mitigates chronic ALD. (A) C57BL/6 mice (10 wk old age) were used in chronic ALD models and analyzed after 4 weeks as described. Pair fed (n=5/group) and EtOH fed (n=10/group) mice were treated with Veh (0.25% CMC) and UAS03 (20 mg/kg) alternate day for 4 weeks. (B) Gross images of colons (C) colon lengths (D) In vivo permeability using FITC-Dextran was measured. (E) Serum ALT, AST, endotoxin, IL-6, TNF-α were measured using ELISA methods. (F) H&E sections (20×) of liver are shown. Scale bar is 100 μm. Fat droplets (white) are visible in EtOH group. (G) The levels of triglycerides (TGs), IL-6, TNF-α and myeloperoxidase (MPO) were measured in liver tissues. (H) Immunoblot of Ocln expression in ileum tissues (n=3) from mice fed with EtOH treated with Veh or UAS03. Error bars, ±SEM. Statistics were performed using 2way ANOVA multiple comparisons. * p<0.05, ** p<0.01, *** p<0.001.
Male C57BL/6N (10 week age old) were purchased from Jackson Laboratory and were acclimatized with pair fed liquid diet (Lieber DeCarli) for 1 week. After acclimatization, animals were fed with pair fed (n=5 mice/group) and alcohol diet (n=10 mice/group). Briefly, mice were fed with diet containing 17% of energy as protein, 40% as corn oil, 7.5% as carbohydrate, and 35.5% as either alcohol (5% v/w, alcohol-fed, AF) or isocaloric maltose dextrin (pair-fed, PF). Before mice went on to 5% alcohol diet, alcohol concentration was ramped from 1.6% (3 days) to 3.6% (3 days) and finally 5% for next 4 weeks. UAS03 group animals received UAS03 orally (20 mg/kg/day) on every other day after start of alcohol diet (FIG. 18A). We used 0.25% sodium carboxymethyl cellulose (CMC) as vehicle treatment. The mice were euthanized after 4 weeks and measured colon lengths (FIG. 18B-C), in vivo gut permeability (FITC-dextran assay), serum ALT, AST, endotoxin, IL-6 and TNF-α (FIG. 18E).

[2] = test system: C57BL/6 mice; assay: Acute (binge) alcohol ALD model; assay type: in vivo, mouse
Description: FIG. 15: UroA treatment reduces binge EtOH-induced ALD. (A) Acute alcohol model: Female wild type (C547BL/6) mice (n=6/group) were oral gavaged with alcohol (5 g/kg) at 0, 12 and 24 h. Mice were treated with Veh (0.25% CMC) or UroA (20 mg/kg) at 2, 14 and 26 h. Mice were euthanized at 32 h. (B) In vivo permeability was measured by determining serum levels of FITC-Dextran post 4 h oral gavage of FITC-dextran (C) Fecal albumin was measured using standard ELISA. (D-I) Indicated serum cytokines/markers levels were measured in serum using standard ELISA. (J) The levels of triglycerides (TGs) in liver were measured using ELISA methods. Error bars, ±SEM. Statistics were performed using 2 way ANOVA multiple comparisons. * p<0.05, ** p<0.01, *** p<0.001.
Treatment with UroA mitigates acute and chronic alcohol liver disease. To examine therapeutic efficacies of UroA in ALD, we adopted acute mouse model as developed by Gao B group (NIAAA) (BERTOLA et al., (2013) “Mouse model of chronic and binge ethanol feeding (the NIAAA model)” Nat Protoc. Vol. 8, No. 3, pp. 627-637). We tested therapeutic efficacies of UroA in this model.

SMILES | deterioration of Ocln in the gut [1] | liver fat deposition (histopathology) [1] | liver inflammation (IL-6, TNF-α, MPO) and TG levels [1] | TJ protein (ZO-1) disruption at intestines ([2]; 20 mg/kg) | TG accumulation in liver ([2]; 20 mg/kg at 2, 14 and 26 h) | circulating serum ALT, AST levels ([2]; 20 mg/kg at 2, 14 and 26 h) | systemic inflammation (serum IL-6, TNF-α, IL-1β, endotoxins) ([2]; 20 mg/kg at 2, 14 and 26 h)
Oc1ccc2c(c1)COc1cc(O)ccc1-2 [UAS03, 6H-benzo[c]chromene-3,8-diol] | protected from deterioration of Ocln | reduced liver fat deposition | down regulated liver inflammation and TG levels | – | – | – | –
O=c1oc2cc(O)ccc2c2ccc(O)cc12 [UroA, 3,8-dihydroxy-6H-dibenzo[b,d]pyran-6-one] | – | – | – | protects against TJ protein (ZO-1) disruption | reduced TG accumulation in liver | reduced | reduced
